Measured values taken from patent US20220411525A1, “BCMA AS A TARGET FOR T CELL REDIRECTING ANTIBODIES IN B CELL LYMPHOMAS” (Janssen Pharmaceutica NV, priority 2021, published 2022).

Tests used:
[1] = system: B cell malignancy cell lines; experiment: BCMA membrane level by flow cytometry after γ-secretase inhibition; assay type: cell-based; conditions: 100nM, 24-48 h, all B cell malignancy cell lines
Experimental: (§1) To evaluate whether other malignancies besides multiple myeloma (MM) can potentially be targeted by BCMA directed immunotherapy, B cell malignancy cell lines were assessed for BCMA expression by flow cytometry. […] Per FIG. 1A, B cell malignancy cell lines were cultured and basal levels of BCMA were assessed by flow cytometry and compared to isotype controls. (n=3-8). Dotted line indicates no increase compared to isotype control. In accordance with FIG. 1B, cell lines were treated for 24-48h with 100nM γ-secretase inhibitor or with medium control and BCMA was assessed by flow cytometry. Values are represented as fold increase compared to 0 nM γ-secretase inhibitor. (n=3-12) Dotted line indicates no increase compared to 0 nM γ-secretase inhibitor. FIG. 1C represents the results of an asssessment of soluble BCMA by ELISA in supernatants of B cell malignancy cell lines after treatment with 0 nM or 100 nM γ-secretase inhibitor for 24-48 h. (n=2). […] The P value was calculated by paired t test of Wilcoxon test (FIG. 1A-1B) or simple linear regression (FIG. 1E). […]
(§2) Since BCMA is known to be cleaved off by γ-secretase, it was evaluated whether inhibition of this enzyme would lead to enhanced BCMA levels on these B cell lines. […]
Flow cytometry. […] After antibody staining, samples were washed using PBA and acquired on BD FACS Canto or LSR Fortessa flow cytometer and analysed with FlowJo v10. […]

[2] = system: B cell malignancy cell lines; experiment: Soluble BCMA ELISA in supernatants of cell lines; assay type: cell-based; conditions: 100 nM, 24 or 48h, both time points
Experimental: as §1, §2
sBCMA ELISA. […] After 24 or 48 h supernatants were harvested and stored at −20° C. soluble BCMA (sBCMA) in supernatants were measured by ELISA using antibody pairs for BCMA.

[3] = system: B cell malignancy cell lines; experiment: BCMA mRNA relative to GAPDH by qPCR in cell lines; assay type: cell-based; conditions: 100 nM, 24 h, prior and after γ-secretase inhibition
Experimental: as §1, with “inhibitor.” for “inhibitor. FIG. 1C represents the results of an asssessment of soluble BCMA by ELISA in supernatants of B cell malignancy cell lines after treatment with 0 nM or 100 nM γ-secretase inhibitor for 24-48 h. (n=2).”
as §2
BCMA characterization by flow cytometry and quantitative polymerase chain reaction. […] After 24 or 48 h BCMA was detected by flow cytometry as described above. Relative expression was calculated compared to isotype controls. […]

primary CLL cells = experiment: Viability of CLL cells under γ-secretase inhibition; assay type: cell-based, human; conditions: 100 nM γ-secretase inhibitor
Experimental: Viability of CLL cells was not affected by the inhibitor (FIG. 8A). No difference in BCMA levels, before or after γ-secretase inhibitor treatment, was observed between CLL samples with mutated and unmutated immunoglobulin heavy chain variable region gene (IgHV) status (FIG. 2C-D). Low but measurable mRNA levels of BCMA expression could be detected on CLL cells (FIG. 2E). Despite low BCMA detection by flow cytometry, sBCMA could be detected in supernatants of CLL cells, already after 24 h of culturing, which increased after 48 h (FIG. 2F).

For `C[C@H](NC(=O)[C@@H](O)c1cc(F)cc(F)c1)C(=O)N[C@@H]1C(=O)N(C)c2ccccc2-c2ccccc21` [Ly411575], the “BCMA level after γ-secretase inhibition compared to unstimulated cells” value [1] was “increased BCMA level”, the “soluble BCMA (sBCMA) levels in supernatants” value [2] was “strongly reduced” and the “BCMA mRNA levels” value [3] was “remained equal”. The “Viability of CLL cells” value (primary CLL cells) was “not affected”.
